Test: Bioavailability: plasma concentration after oral administration to rats
Type: in vivo, male Sprague-Dawley rats
Conditions: for AUC: rat plasma, 3 rats; for Presence of the unchanged prodrug in the blood samples: 50 mg/kg po as aqueous solution (PBS), HPLC-MS; for Presence of the unchanged prodrug in the blood samples / Delivery of parent drug (PL-100 / PL-337) compared to non-aqueous formulations of the parent drug: rat; for Delivery of parent drug (PL-100 / PL-337) compared to non-aqueous formulations of the parent drug: aqueous dosing, 50 mg/kg po
Protocol: To assess the extent of in vivo cleavage of the phosphate group from the putative compounds, PL-100, PL-462 (based on PL-100), PL-337 and PL-515 (based on PL-337) compounds were administered per os (po) (50 mg/kg) to male Sprague-Dawley rats and their plasma concentration measured at different time intervals post-administration. All test articles (PL-100, PL-462, PL-337 and PL-515) were prepared in different vehicle at the final concentration of 25 mg/mL. The vehicle composition is as follows: (1) 20% ethanol; 50% propylene glycol; 0.05% w/v Tween 20 and water (Mix); (2) PBS buffer (PBS). Test articles were administered to male Sprague-Dawley rats at a single oral dose of 50 mg/kg. Each article was tested in three rats. Blood samples (0.2-0.3 mL) were collected at the post-dose time of 10, 20, 40, 60, 120, 180 and 360 minutes. The harvested blood was centrifuged to isolate plasma. The resulting plasma was separated and stored at −70° C. Plasma samples together with standards and quality control samples were treated to precipitate proteins, then analyzed by HPLC-MS, for the presence of PL-462, PL-100, PL-515 and PL-337.

[1] = parent drug dosed 50 mg/Kg po in Mix vehicle (20% ethanol; 50% propylene glycol; 0.05% w/v Tween 20 and water)
[2] = prodrug dosed 50 mg/Kg po in PBS vehicle, parent drug detected (PL-100 or PL-337)

AUC [1] [μg/hr * ml]	Structure (SMILES)	Presence of the unchanged prodrug in the blood samples	Delivery of parent drug (PL-100 / PL-337) compared to non-aqueous formulations of the parent drug	AUC [2] [μg/hr * ml]
1.180 ± 0.196	COC(=O)N[C@H](C(=O)NCCCC[C@@H](CO)N(CC(C)C)S(=O)(=O)c1ccc(N)c(F)c1)C(c1ccccc1)c1ccccc1 [PL-337, (1-{5-[(4-amino-3-fluoro-benzenesulfonyl)-isobutyl-amino]-6-hydroxy-hexylcarbamoyl}-2,2-diphenyl-ethyl)-carbamic acid methyl ester]	–	–	–
0.675 ± 0.171	COC(=O)N[C@H](C(=O)NCCCC[C@@H](CO)N(CC(C)C)S(=O)(=O)c1ccc(N)cc1)C(c1ccccc1)c1ccccc1 [PL-100, (1S,5S)-(1-{5-[(4-amino-benzenesulfonyl)-isobutyl-amino]-6-hydroxy-hexylcarbamoyl}-2,2-diphenyl-ethyl)-carbamic acid methyl ester]	–	–	–
–	COC(=O)N[C@H](C(=O)NCCCC[C@@H](COP(=O)([O-])[O-])N(CC(C)C)S(=O)(=O)c1ccc(N)cc1)C(c1ccccc1)c1ccccc1.[Na+].[Na+] [PL-462, (1S,5S)-(1-{5-[(4-amino-benzenesulfonyl)-isobutyl-amino]-6-phosphonooxy-hexylcarbamoyl}-2,2-diphenyl-ethyl)-carbamic acid methyl ester sodium salt]	None of the PL-462 and PL-515 compounds, delivered as aqueous solutions, are detected	equivalent to slightly superior	0.816 ± 0.295
–	COC(=O)N[C@H](C(=O)NCCCC[C@@H](COP(=O)(O)O)N(CC(C)C)S(=O)(=O)c1ccc(N)c(F)c1)C(c1ccccc1)c1ccccc1 [PL-515, (1S,5S)-(1-{5-[(4-amino-3-fluoro-benzenesulfonyl)-isobutyl-amino]-6-phosphonooxy-hexylcarbamoyl}-2,2-diphenyl-ethyl)-carbamic acid methyl ester]	None of the PL-462 and PL-515 compounds, delivered as aqueous solutions, are detected	equivalent to slightly superior	1.075 ± 0.625
